Results published in PubChem BioAssay (NCI).
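How tested: cells in 96-well plates exposed to compound for 48 hours at five concentrations. At the TGI there is no net growth.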

Legend:
Experiment in all cases: NCI tumour cell line growth inhibition, 48 h
786-0 renal = tested on: 786-0 renal
A498 renal = tested on: A498 renal
A549 NSCLC = tested on: A549 NSCLC
ACHN renal = tested on: ACHN renal
BT-549 breast = tested on: BT-549 breast
CAKI-1 renal = tested on: CAKI-1 renal
COLO 205 colon = tested on: COLO 205 colon
DU-145 prostate = tested on: DU-145 prostate
EKVX NSCLC = tested on: EKVX NSCLC
HCT-116 colon = tested on: HCT-116 colon
HCT-15 colon = tested on: HCT-15 colon
HL-60(TB) leukemia = tested on: HL-60(TB) leukemia
HOP-62 NSCLC = tested on: HOP-62 NSCLC
HOP-92 NSCLC = tested on: HOP-92 NSCLC
HS 578T breast = tested on: HS 578T breast
HT29 colon = tested on: HT29 colon
IGROV1 ovarian = tested on: IGROV1 ovarian
K-562 leukemia = tested on: K-562 leukemia
KM12 colon = tested on: KM12 colon
LOX IMVI melanoma = tested on: LOX IMVI melanoma
M14 melanoma = tested on: M14 melanoma
MALME-3M melanoma = tested on: MALME-3M melanoma
MCF7 breast = tested on: MCF7 breast
MDA-MB-231 breast = tested on: MDA-MB-231 breast
MDA-MB-435 = tested on: MDA-MB-435
MDA-N = tested on: MDA-N
MOLT-4 leukemia = tested on: MOLT-4 leukemia
NCI-H226 lung = tested on: NCI-H226 lung
NCI-H23 lung = tested on: NCI-H23 lung
NCI-H460 lung = tested on: NCI-H460 lung
NCI-H522 lung = tested on: NCI-H522 lung
NCI/ADR-RES ovarian = tested on: NCI/ADR-RES ovarian
OVCAR-3 ovarian = tested on: OVCAR-3 ovarian
OVCAR-4 ovarian = tested on: OVCAR-4 ovarian
OVCAR-5 ovarian = tested on: OVCAR-5 ovarian
OVCAR-8 ovarian = tested on: OVCAR-8 ovarian
PC-3 prostate = tested on: PC-3 prostate
RPMI-8226 leukemia = tested on: RPMI-8226 leukemia
RXF 393 renal = tested on: RXF 393 renal
SF-268 CNS = tested on: SF-268 CNS
SF-295 CNS = tested on: SF-295 CNS
SF-539 CNS = tested on: SF-539 CNS
SK-MEL-2 melanoma = tested on: SK-MEL-2 melanoma
SK-MEL-28 melanoma = tested on: SK-MEL-28 melanoma
SK-MEL-5 melanoma = tested on: SK-MEL-5 melanoma
SK-OV-3 ovarian = tested on: SK-OV-3 ovarian
SN12C renal = tested on: SN12C renal
SNB-19 CNS = tested on: SNB-19 CNS
SNB-75 CNS = tested on: SNB-75 CNS
SR leukemia = tested on: SR leukemia
SW-620 colon = tested on: SW-620 colon
T-47D breast = tested on: T-47D breast
TK-10 renal = tested on: TK-10 renal
U251 CNS = tested on: U251 CNS
UACC-257 melanoma = tested on: UACC-257 melanoma
UACC-62 melanoma = tested on: UACC-62 melanoma
UO-31 renal = tested on: UO-31 renal
CCRF-CEM leukemia = tested on: CCRF-CEM leukemia
HCC-2998 colon = tested on: HCC-2998 colon

Measured: TGI

O=C(O)CSCC(=O)c1ccccc1
not listed: CCRF-CEM leukemia | HCC-2998 colon
> 100 µM: all other assays above

CCOC(=O)C(C)c1nc2cc(F)c(N3CCOCC3)cc2[nH]c1=O (centres undefined)
not listed: HL-60(TB) leukemia | LOX IMVI melanoma
> 100 µM: all other assays above
